Reference: ChEMBL document CHEMBL2401728, “An unexpected Dimroth rearrangement leading to annelated thieno[3,2-d][1,2,3]triazolo[1,5-a]pyrimidines with potent antitumor activity” (Eur J Med Chem, 2013)

Key:
[1] = Cytotoxicity against human non-small cell lung cancer cells assessed as cellular growth at 10 uM after 48 hrs by SRB assay relative to control; type: functional, Cancer cell lines
[2] = Cytotoxicity against human leukemia cells assessed as cellular growth at 10 uM after 48 hrs by SRB assay relative to control; type: functional, Leukemia cell
[3] = Cytotoxicity against human melanoma cells assessed as cellular growth at 10 uM after 48 hrs by SRB assay relative to control; type: functional, Melanoma cell
[4] = Cytotoxicity against human breast cancer cells assessed as cellular growth at 10 uM after 48 hrs by SRB assay relative to control; type: functional, Cancer cell lines
[5] = Cytotoxicity against human ovarian cancer cells assessed as cellular growth at 10 uM after 48 hrs by SRB assay relative to control; type: functional, Cancer cell lines
[6] = Cytotoxicity against human prostate cancer cells assessed as cellular growth at 10 uM after 48 hrs by SRB assay relative to control; type: functional, Cancer cell lines
[7] = Cytotoxicity against human colon cancer cells assessed as cellular growth at 10 uM after 48 hrs by SRB assay relative to control; type: functional, Cancer cell lines
[8] = Cytotoxicity against human renal cancer cells assessed as cellular growth at 10 uM after 48 hrs by SRB assay relative to control; type: functional, Cancer cell lines
[9] = Cytotoxicity against human CNS cancer cells assessed as cellular growth at 10 uM after 48 hrs by SRB assay relative to control; type: functional, Cancer cell lines
CCRF-CEM = test: Cytotoxicity against human CCRF-CEM cells after 48 hrs by SRB assay; type: functional
MOLT-4 = test: Cytotoxicity against human MOLT4 cells after 48 hrs by SRB assay; type: functional; conditions: MOLT-4, 48 h, read-out: pLC50 (the source's name) (converted)
HT-29 = test: Cytotoxicity against human HT-29 cells after 48 hrs by SRB assay; type: functional; conditions: HT-29, 48 h, read-out: pLC50 (the source's name) (converted)
[10] = Cytotoxicity against human EKVX cells after 48 hrs by SRB assay; type: functional; conditions: read-out: pLC50 (the source's name) (converted)
A549 = test: Cytotoxicity against human A549 cells after 48 hrs by SRB assay; type: functional; conditions: A549, 48 h, read-out: pLC50 (converted)
MCF7 = test: Cytotoxicity against human MCF7 cells after 48 hrs by SRB assay; type: functional; conditions: MCF7, 48 h
RPMI-8226 = test: Cytotoxicity against human RPMI8226 cells after 48 hrs by SRB assay; type: functional; conditions: RPMI-8226, 48 h, read-out: pLC50 (converted)
HCT-15 = test: Cytotoxicity against human HCT15 cells after 48 hrs by SRB assay; type: functional; conditions: HCT-15, 48 h, read-out: pTGI (converted)
MDA-MB-435 = test: Cytotoxicity against human MDA-MB-435 cells after 48 hrs by SRB assay; type: functional; conditions: MDA-MB-435, 48 h, read-out: pLC50 (the source's name) (converted)
HCC 2998 = test: Cytotoxicity against human HCC2998 cells after 48 hrs by SRB assay; type: functional; conditions: HCC 2998, 48 h, read-out: pLC50 (the source's name) (converted)
SNB-19 = test: Cytotoxicity against human SNB19 cells after 48 hrs by SRB assay; type: functional; conditions: SNB-19, 48 h, read-out: pLC50 (the source's name) (converted)
K562 = test: Cytotoxicity against human K562 cells after 48 hrs by SRB assay; type: functional; conditions: K562, 48 h, read-out: pLC50 (the source's name) (converted)

Compound	Activity [1] [%]	Activity [2] [%]	Activity [3] [%]	Activity [4] [%]	Activity [5] [%]	Activity [6] [%]	Activity [7] [%]	Activity [8] [%]	Activity [9] [%]	other results
CN1CCN(CCCn2c(=O)c3sc4ncccc4c3n3nnc(-c4ccccc4)c23)CC1	14	-22	-78	-23	7	39	-37	-14	-43	
O=C(CCCn1c(=O)c2sc3ccccc3c2n2nnc(-c3ccccc3)c12)NCCc1c[nH]cn1	-26	71	-57	-5	-16	-41	-49	-34	-18	TGI (CCRF-CEM; read-out: pTGI (converted)): 100 µM
O=C(CCCn1c(=O)c2sc3ncccc3c2n2nnc(-c3ccccc3)c12)NCCc1c[nH]cn1	88	61	71	79	59	46	49	79	60	CC50 (CCRF-CEM; read-out: pLC50 (the source's name) (converted)): > 100 µM; CC50 (MOLT-4): > 100 µM; CC50 (HT-29): > 100 µM; CC50 [10]: > 100 µM; CC50 (A549): > 100 µM; LC50 (MCF7; read-out: pLC50 (converted)): > 100 µM; TGI (MCF7; read-out: pTGI (converted)): 100 µM; CC50 (RPMI-8226): > 100 µM; TGI (HCT-15): 100 µM; CC50 (MDA-MB-435): > 100 µM; CC50 (HCC 2998): > 100 µM; CC50 (SNB-19): > 100 µM; CC50 (K562): > 100 µM
